Laboratory results reported in patent publication US11040027B2, “Protein kinase inhibitors for promoting liver regeneration or reducing or preventing hepatocyte death” (HEPAREGENIX GMBH, priority 2017, dated 2021).

How the values were obtained:
MEKK2 = target: T1, MEKK2 (Homo sapiens, UniProt Q9Y2U5); experiment: Radiometric protein kinase assay, MEKK2; type: biochemical; conditions: substrate Casein, ATP 0.2 μM; read-out: MEKK2 (potency derived from IC50-values)
T1 construct: purchased ProQinase 0583-0000-1
T1 sequence (Q9Y2U5 1-619): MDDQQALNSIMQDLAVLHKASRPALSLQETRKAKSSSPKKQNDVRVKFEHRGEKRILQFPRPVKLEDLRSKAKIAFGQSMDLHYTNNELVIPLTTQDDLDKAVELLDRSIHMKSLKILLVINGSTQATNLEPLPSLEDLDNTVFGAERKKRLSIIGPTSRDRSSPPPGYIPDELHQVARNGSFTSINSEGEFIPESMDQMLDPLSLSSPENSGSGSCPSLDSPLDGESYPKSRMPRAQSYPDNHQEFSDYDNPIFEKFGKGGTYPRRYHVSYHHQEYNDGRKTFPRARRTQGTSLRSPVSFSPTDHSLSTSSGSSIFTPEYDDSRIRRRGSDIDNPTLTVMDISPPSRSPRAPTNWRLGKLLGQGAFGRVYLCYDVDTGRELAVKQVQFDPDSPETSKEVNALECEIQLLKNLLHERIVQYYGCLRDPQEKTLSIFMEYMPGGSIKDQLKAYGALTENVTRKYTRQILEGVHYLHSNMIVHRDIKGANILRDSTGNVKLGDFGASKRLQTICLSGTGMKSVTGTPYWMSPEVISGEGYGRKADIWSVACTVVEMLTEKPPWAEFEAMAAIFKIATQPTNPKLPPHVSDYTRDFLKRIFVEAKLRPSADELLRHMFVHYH
Experimental: (§1) A radiometric protein kinase assay was used for measuring the kinase activity of the respective protein kinases. All kinase assays were performed in 96-well polypropylene plates. After the reactions were stopped, the assay mixtures were transferred to 96-well MSFC filter-plates (Millipore). The reaction mix was passed through the filter membrane by aspiration, the membrane was washed 3 times with 150 mM H3PO4, once with ethanol, dried and liquid scintillation cocktail was added. Radioactivity was determined by counting of the samples in a Microbeta multiwell scintillation counter (Wallac).
(§2) b) Single Kinases • 20 μl standard assay buffer • 5 μl compound in 10% DMSO • 20 μl enzyme-substrate mix • 10 μl of substrate solution
(§3) The reaction cocktails were incubated at 30° C. for 30 minutes.

MKK4 = target: T2, MKK4 (Homo sapiens, UniProt P45985); experiment: KINOMEscan competition binding assay, MKK4; conditions: read-out: Potency MKK4 (derived from % of control values, PoC)
T2 sequence (P45985 84-399): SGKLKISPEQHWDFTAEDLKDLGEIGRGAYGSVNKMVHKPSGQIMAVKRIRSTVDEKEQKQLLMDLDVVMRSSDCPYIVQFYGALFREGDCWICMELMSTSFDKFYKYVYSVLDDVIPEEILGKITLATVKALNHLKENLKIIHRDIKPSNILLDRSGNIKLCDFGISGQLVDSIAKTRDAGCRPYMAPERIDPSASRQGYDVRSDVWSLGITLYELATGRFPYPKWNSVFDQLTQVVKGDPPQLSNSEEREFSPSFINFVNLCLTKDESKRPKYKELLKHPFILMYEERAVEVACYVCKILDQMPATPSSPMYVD
Experimental: (§4) The assay was performed by combining three components: DNA-tagged kinase; immobilized ligand; and a test compound. The ability of the test compound to compete with the immobilized ligand was measured via quantitative PCR of the DNA tag.
(§5) For investigation of the affinity to MKK4, MKK7 and JNK1, the kinases were produced in HEK-293 cells and subsequently tagged with DNA for qPCR detection. […] The liganded beads were blocked with excess biotin and washed with blocking buffer (SEABLOCK™ (Pierce), 1% BSA, 0.05% TWEEN®20, 1 mM DTT) to remove unbound ligand and to reduce nonspecific binding. […] All reactions were performed in polystyrene 96-well plates in a final volume of 0.135 mL. […] The kinase concentration in the eluates was measured by qPCR.
(§6) The test compounds were provided as 10 mM stock solutions. The test solutions at indicated final concentrations were prepared at DiscoverX.

JNK1 = JNK1 (Homo sapiens, UniProt P45983); experiment: KINOMEscan competition binding assay, selectivity JNK1 versus MKK4; conditions: Test conc 0.1 μM; ratio of percent of control; N/E* = PoC for JNK1 = 100
Experimental: as §4, §5, §6

MKK4 active = target: T3, MKK4 active (Homo sapiens, UniProt P45985); experiment: Radiometric protein kinase assay, MKK4 active; type: biochemical; conditions: substrate JNK1 KRKR, ATP 0.2 μM, read-out: MKK4 (potency derived from IC50-values)
T3 construct: purchased ProQinase 0948-0000-1
T3 sequence (P45985 1-399): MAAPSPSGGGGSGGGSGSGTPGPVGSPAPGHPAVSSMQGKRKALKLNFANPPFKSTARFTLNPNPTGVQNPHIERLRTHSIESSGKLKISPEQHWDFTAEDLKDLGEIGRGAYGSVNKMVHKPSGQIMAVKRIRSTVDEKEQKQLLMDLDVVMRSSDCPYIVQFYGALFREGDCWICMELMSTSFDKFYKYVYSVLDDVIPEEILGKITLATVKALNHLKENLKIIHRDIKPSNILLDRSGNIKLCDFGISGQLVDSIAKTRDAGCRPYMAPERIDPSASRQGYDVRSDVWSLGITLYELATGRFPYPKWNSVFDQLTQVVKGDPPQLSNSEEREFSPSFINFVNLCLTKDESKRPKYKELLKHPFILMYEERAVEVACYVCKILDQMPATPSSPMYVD
Experimental: as §1, §2, §3

MKK7 = target: T4, MKK7 (Homo sapiens, UniProt O14733); experiment: KINOMEscan competition binding assay, selectivity MKK7 versus MKK4; conditions: Test conc. 0.1 μM; ratio of percent of control; N/E* per footnote
T4 sequence (O14733 1-419): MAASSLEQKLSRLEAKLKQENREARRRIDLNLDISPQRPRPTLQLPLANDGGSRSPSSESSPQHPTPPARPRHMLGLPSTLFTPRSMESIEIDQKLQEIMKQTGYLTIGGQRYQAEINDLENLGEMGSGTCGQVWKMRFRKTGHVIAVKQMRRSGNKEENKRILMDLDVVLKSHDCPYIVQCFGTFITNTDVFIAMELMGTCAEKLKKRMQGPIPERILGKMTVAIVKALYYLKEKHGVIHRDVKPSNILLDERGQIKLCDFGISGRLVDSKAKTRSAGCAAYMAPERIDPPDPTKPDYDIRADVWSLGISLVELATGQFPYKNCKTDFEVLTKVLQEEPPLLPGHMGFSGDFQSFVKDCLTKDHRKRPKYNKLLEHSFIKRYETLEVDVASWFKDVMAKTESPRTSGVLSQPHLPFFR
Experimental: as §4, §5, §6

BRaf = BRaf (Homo sapiens, UniProt P15056); experiment: KINOMEscan competition binding assay, selectivity BRaf versus MKK4; conditions: Test conc. 0.1 μM; ratio of percent of control; N/E* per footnote
BRaf, sequence (P15056 whole entry): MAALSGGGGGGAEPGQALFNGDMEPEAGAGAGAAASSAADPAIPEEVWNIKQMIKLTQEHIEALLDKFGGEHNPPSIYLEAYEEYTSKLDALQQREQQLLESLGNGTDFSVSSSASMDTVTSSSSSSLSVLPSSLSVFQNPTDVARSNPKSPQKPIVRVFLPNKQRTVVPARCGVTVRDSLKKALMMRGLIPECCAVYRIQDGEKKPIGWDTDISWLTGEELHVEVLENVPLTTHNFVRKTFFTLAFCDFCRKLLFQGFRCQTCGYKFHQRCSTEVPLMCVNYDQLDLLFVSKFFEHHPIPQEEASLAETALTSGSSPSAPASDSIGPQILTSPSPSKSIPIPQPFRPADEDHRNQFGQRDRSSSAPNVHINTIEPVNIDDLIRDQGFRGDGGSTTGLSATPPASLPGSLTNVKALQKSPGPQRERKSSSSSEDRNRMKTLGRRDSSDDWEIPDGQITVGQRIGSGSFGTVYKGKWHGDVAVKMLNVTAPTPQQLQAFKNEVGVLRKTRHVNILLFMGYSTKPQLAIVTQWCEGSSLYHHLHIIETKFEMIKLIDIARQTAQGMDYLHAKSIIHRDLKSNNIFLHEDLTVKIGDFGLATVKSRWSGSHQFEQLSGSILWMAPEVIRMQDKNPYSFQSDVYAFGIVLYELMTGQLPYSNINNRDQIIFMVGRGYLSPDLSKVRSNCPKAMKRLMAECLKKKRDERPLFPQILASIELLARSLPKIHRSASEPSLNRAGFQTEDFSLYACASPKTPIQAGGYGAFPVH

JNK1, sequence (P45983 1-384 isoform P45983-2): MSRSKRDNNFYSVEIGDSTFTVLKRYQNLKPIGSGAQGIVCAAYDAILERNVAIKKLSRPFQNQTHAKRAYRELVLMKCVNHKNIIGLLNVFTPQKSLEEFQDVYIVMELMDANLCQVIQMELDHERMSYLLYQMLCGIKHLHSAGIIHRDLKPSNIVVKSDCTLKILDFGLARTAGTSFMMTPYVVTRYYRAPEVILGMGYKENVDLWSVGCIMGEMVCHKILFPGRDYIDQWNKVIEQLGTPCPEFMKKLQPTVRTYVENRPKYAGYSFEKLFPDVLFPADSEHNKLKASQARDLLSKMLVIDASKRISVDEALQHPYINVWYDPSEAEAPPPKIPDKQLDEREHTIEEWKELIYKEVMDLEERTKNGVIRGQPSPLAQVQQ

Structure (SMILES) | IC50 (MEKK2) | remaining binding at 0.1 µM (MKK4) | Selectivity JNK1/MKK4 (JNK1) | IC50 (MKK4 active) | Selectivity MKK7/MKK4 (MKK7) | Selectivity BRaf/MKK4 (BRaf)
CS(=O)(=O)Nc1cccc(C(=O)c2c[nH]c3ncc(-c4ccccc4Cl)cc23)c1F [Example 38, N-(3-(5-(2-Chlorophenyl)-1H-pyrrolo[2,3-b]pyridine-3-carbonyl)-2-fluorophenyl) methanesulfonamide] | 1 to 10 µM | 10 to 30% | N/E* (PoC for JNK1 = 100) | < 500 nM | 5.3 | 5.3
CCCS(=O)(=O)Nc1ccc(F)c(C(=O)c2c[nH]c3ncc(-c4ccc(F)cc4Cl)cc23)c1F [Example 40, N-(3-(5-(2-Chloro-4-fluorophenyl)-1H-pyrrolo[2,3-b]pyridine-3-carbonyl)-2,4-difluorophenyl)propane-1-sulfonamide] | 1 to 10 µM | 10 to 30% | N/E* (PoC for JNK1 = 100) | < 500 nM | 5.6 | 4.7
CCCS(=O)(=O)Nc1ccc(F)c(C(=O)c2c[nH]c3ncc(-c4cc5c(cc4Cl)OCCO5)cc23)c1F [Example 44, N-(3-(5-(7-Chloro-2,3-dihydrobenzo[b][1,4]dioxin-6-yl)-1H-pyrrolo[2,3-b]pyridine-3-carbonyl)-2,4-difluorophenyl)propane-1-sulfonamide] | 1 to 10 µM | < 10% | N/E* (PoC for JNK1 = 100) | < 500 nM | 18 | 14
CC(C)c1ccc(-c2cnc3[nH]cc(C(=O)c4cccc(NS(C)(=O)=O)c4F)c3c2)cc1 [Example 45] | > 10 µM | > 30% | N/E* (PoC for JNK1 = 100) | 1000 to 10000 nM | N/E* (PoC for JNK1 = 100) | N/E* (PoC for JNK1 = 100)
COc1ccc(-c2cnc3[nH]cc(C(=O)c4cccc(NS(C)(=O)=O)c4F)c3c2)c(Cl)c1 [Example 46] | 1 to 10 µM | < 10% | N/E* (PoC for JNK1 = 100) | < 500 nM | 10 | N/E* (PoC for JNK1 = 100)
CS(=O)(=O)Nc1cccc(C(=O)c2c[nH]c3ncc(-c4cc5c(cc4Cl)OCO5)cc23)c1F [Example 47] | 1 to 10 µM | < 10% | 10 | < 500 nM | 9.7 | N/E* (PoC for JNK1 = 100)
CS(=O)(=O)Nc1cccc(C(=O)c2c[nH]c3ncc(-c4cc5c(cc4Cl)OCCO5)cc23)c1F [Example 48] | > 10 µM | 10 to 30% | 8.4 | 1000 to 10000 nM | 8.7 | N/E* (PoC for JNK1 = 100)
CCCCS(=O)(=O)Nc1cccc(C(=O)c2c[nH]c3ncc(-c4ccc(Cl)cc4)cc23)c1F [Example 50] | > 10 µM | 10 to 30% | N/E* (PoC for JNK1 = 100) | < 500 nM | N/E* (PoC for JNK1 = 100) | 7.0
CCCCS(=O)(=O)Nc1cccc(C(=O)c2c[nH]c3ncc(-c4ccc(OC)cc4Cl)cc23)c1F [Example 52] | > 10 µM | < 10% | 17 | < 500 nM | N/E* (PoC for JNK1 = 100) | N/E* (PoC for JNK1 = 100)
CCCCS(=O)(=O)Nc1cccc(C(=O)c2c[nH]c3ncc(-c4ccc5c(c4)OCO5)cc23)c1F [Example 53] | 1 to 10 µM | < 10% | N/E* (PoC for JNK1 = 100) | < 500 nM | N/E* (PoC for JNK1 = 100) | 56
CCCCS(=O)(=O)Nc1cccc(C(=O)c2c[nH]c3ncc(-c4ccc5c(c4)OCCO5)cc23)c1F [Example 54] | 1 to 10 µM | < 10% | 55 | < 500 nM | 61 | 36
CCCCS(=O)(=O)Nc1cccc(C(=O)c2c[nH]c3ncc(-c4cc5c(cc4Cl)OCO5)cc23)c1F [Example 55] | > 10 µM | < 10% | 14 | < 500 nM | N/E* (PoC for JNK1 = 100) | N/E* (PoC for JNK1 = 100)
CCCCS(=O)(=O)Nc1cccc(C(=O)c2c[nH]c3ncc(-c4cc5c(cc4Cl)OCCO5)cc23)c1F [Example 56] | > 10 µM | < 10% | 24 | < 500 nM | N/E* (PoC for JNK1 = 100) | N/E* (PoC for JNK1 = 100)
